According to patent US9526766B2, “Potentiation of antibiotic treatment with a protein-lipid complex” (priority 2012, dated 2016):
≈ marks a conversion by molar mass, not a printed value. Entries after “also recorded” stand apart in the source; their conditions may differ. Like-named read-outs stand apart in the source and are kept apart here.

Experiments:
[1] = system: S. pneumoniae nasopharyngeal colonization; assay: Murine nasopharyngeal colonization model, intranasal treatment; type: in vivo, Streptococcus pneumoniae; details: for Minimum antibiotic concentration for bactericidal (>3 log10) activity on murine nasopharyngeal colonization: mice, within 12 hours, antibiotic alone; for Colonization level / bacterial burden: mice colonized with SP670 for 48 hours, penicillin up to 100 μg (5,000 μg/ml) intranasally, 12 hours
Protocol: Methodology: Six-week-old female BALB/cByJ mice from Jackson Laboratories (Bar Harbor, Me., U.S.A.) were maintained in filter-top cages on standard laboratory chow and water ad libitum until use. Mice were colonized as described previously. In short, 20 μl of a bacterial suspension containing 5×10^6 CFUs of EF3030 pneumococci, 1×10^8 CFUs of SP670 pneumococci, or 5×10^7 NRS70 methicillin-resistant S. aureus in PBS were pipetted into the nares of non-anesthetized mice. […] Colonization burden was then assessed after euthanizing the animals by enumerating viable bacteria from harvested nasopharyngeal tissue after the nasal wash. Nasopharyngeal tissue was dissected out as described by removing the upper skull bone, and harvesting the tissue present in the nasal conchae with forceps. Bacterial load was measured by determining viable plate counts from the homogenized tissue.
Mice were colonized as described. In short, 20 μl of a bacterial suspension containing 5×10^6 CFUs of EF3030 pneumococci in PBS or 1×10^8 CFUs of SP670 pneumococci in PBS were pipetted into the nares of non-anesthetized mice. […] Colonization burden was then assessed after euthanizing the animals by enumerating viable bacteria both in a nasopharyngeal lavage obtained by injecting 100 μL PBS in the trachea of mice and collecting it as it flowed out the nares, and from harvested nasopharyngeal tissue after the nasal wash. Nasopharyngeal tissue was dissected out as described by removing the upper skull bone, and harvesting the tissue present in the nasal conchae with forceps. Bacterial load was measured by determining viable plate counts from the nasal lavage or from homogenized tissue.

Streptococcus pneumoniae = assay: Short-time kill assay on planktonic cultures; type: cell-based; details: for Minimum antibiotic concentration for bactericidal (>3 log10) activity, planktonic: within 4-6 hours, antibiotic alone
Protocol: (§1) Methodology: In late logarithmic growth phase, the bacteria were harvested by centrifugation at 12,000×g for 10 minutes and resuspended in phosphate-buffered saline (PBS; […], […], […], pH 7.4). Appropriate dilutions of the bacteria were suspended in PBS and treated with indicated concentrations of ALAFAC and/or antibiotics for various times. The effect on bacterial viability was assessed by plating serial dilutions of bacterial sample on tryptic soy agar plates containing 5% sheep blood (viable counts) and determining viable colony forming units after overnight growth at 37° C.
Short-time kill assays. In late logarithmic growth phase, the bacteria were harvested by centrifugation at 12,000×g for 10 minutes and resuspended in phosphate-buffered saline (PBS; 30 mM Na2HPO4, 10 mM KH2PO4, […], pH 7.4). Appropriate concentrations of the bacteria (around 10^8 colony forming units per ml) were suspended in PBS and treated with indicated concentrations of ALAFAC and/or antibiotics for various times. The effect on bacterial viability was assessed by plating serial dilutions of bacterial sample on tryptic soy agar plates containing 5% sheep blood (viable counts) and determining viable CFUs after overnight growth at 37° C.

S. pneumoniae D39 = assay: Autolysis by optical density at 600 nm; type: cell-based, Streptococcus pneumoniae
From the text: Most agents that kill pneumococci, including […] and cell wall-active anti-bacterials activate the major autolysin LytA to induce lysis of the bacteria, which can easily be detected by eye as a clearing of the bacterial suspension upon treatment and measured by a decrease in OD600 nm over time. In comparison, antibiotics acting on bacterial DNA, RNA, or protein synthesis show reduced, though still significant, levels of cell lysis. However, during our combination treatments with […] and gentamicin above we observed no detectable lysis. […] The lack of lysis from combination treatment may be beneficial for the host in reducing the host inflammation associated with bacterial components after lysis.

Staphylococcus aureus [2] = assay: Minimal bactericidal concentration (MBC) from MIC plates; type: cell-based; details: antibiotic alone
From the text: The MBC was defined as the lowest concentration of antimicrobials yielding colony counts <0.1% (3 log10 reduction) of the initial inoculum (as determined by colony counts from the growth control well immediately after inoculation) as described.

Staphylococcus aureus [3] = assay: Bactericidal activity on planktonic cultures; type: cell-based; details: antibiotic alone
Protocol: as §1

[4] = system: S. aureus NRS70 (MRSA) nasopharyngeal colonization; assay: Murine nasopharyngeal colonization model, intranasal treatment; type: in vivo, Staphylococcus aureus; details: for Colonization burden: mice colonized with NRS70 for 48 hours, methicillin single dose 100 μg (5,000 μg/ml) alone, ALAFAC alone at the same dose
Protocol: Methodology: Six-week-old female BALB/cByJ mice from Jackson Laboratories (Bar Harbor, Me., U.S.A.) were maintained in filter-top cages on standard laboratory chow and water ad libitum until use. Mice were colonized as described previously. In short, 20 μl of a bacterial suspension containing 5×10^6 CFUs of EF3030 pneumococci, 1×10^8 CFUs of SP670 pneumococci, or 5×10^7 NRS70 methicillin-resistant S. aureus in PBS were pipetted into the nares of non-anesthetized mice. After 48 hours, mice were treated with 20 μl gentamicin (0-5,000 μg/mL), 20 μl penicillin (0-5,000 μg/mL), or 20 μl of methicillin (0-5,000 μg/ml) in the presence or absence of 50 or 100 μg ALAFAC in the nares for 6 hours as a single dose. Colonization burden was then assessed after euthanizing the animals by enumerating viable bacteria from harvested nasopharyngeal tissue after the nasal wash. Nasopharyngeal tissue was dissected out as described by removing the upper skull bone, and harvesting the tissue present in the nasal conchae with forceps. Bacterial load was measured by determining viable plate counts from the homogenized tissue.
Mice were colonized as described. In short, 10 μl of a bacterial suspension containing 5×10^7 CFUs of NRS 70 staphylococci in PBS were pipetted into the nares of non-anesthetized mice. After 24 hours, mice were treated with 20 μl methicillin (0-100 μg or 0-5,000 μg/mL) in the presence or absence of 20 μl (100 μg) ALAFAC in the nares for 12 hours. Colonization burden was then assessed after euthanizing the animals by enumerating viable bacteria both in a nasopharyngeal lavage obtained by injecting 100 μL PBS in the trachea of mice and collecting it as it flowed out the nares, and from harvested nasopharyngeal tissue after the nasal wash. Nasopharyngeal tissue was dissected out as described by removing the upper skull bone, and harvesting the tissue present in the nasal conchae with forceps. Bacterial load was measured by determining viable plate counts from the nasal lavage or from homogenized tissue as described above.

[5] = ALAFAC 50 μg, alone or combined
[6] = sublethal ALAFAC (50 μg/ml), low gentamicin, alone or combined
[7] = S. aureus NRS384, within 4-6 hours
[8] = D39, 1 hour, ALAFAC 50 μg/ml, gentamicin 50 μg/ml, alone or combined, 7.7 log10 inoculum

Molecule: CC1(C)S[C@@H]2[C@H](NC(=O)Cc3ccccc3)C(=O)N2[C@H]1C(=O)O [Penicillin, penicillin G]
- Minimum antibiotic concentration for bactericidal (>3 log10) activity on murine nasopharyngeal colonization ([1]; SP670): >100 μg/dose
- Colonization level / bacterial burden [1, 5]: no effect
- Colonization level / bacterial burden ([1]; ALAFAC 50 μg, alone or combined, listed as Penicillin G): no effect
- Colonization level / bacterial burden ([1]; ALAFAC 50 μg, alone or combined, listed as penicillin): no effect; also recorded: completely resistant
- Colonization level / bacterial burden ([1]; ALAFAC 50 μg, alone or combined, listed as penicillin G): no change in colonization
- Short-time killing (death of inoculum) (Streptococcus pneumoniae; D39, 4 hours, ALAFAC 50 μg/ml, penicillin G 20 μg/ml, alone or combined, 7.5 log10 inoculum): no bactericidal activity; also recorded: no death
- Short-time killing (Streptococcus pneumoniae; D39, penicillin G alone at 5,000 μg/ml, 4 hours): ≤ 2.6 log10
- Short-time killing (Streptococcus pneumoniae; D39, penicillin alone at 50-fold higher concentration (1,000 μg/ml), 4 hours): ≤ 2.6 log10
- Bactericidal activity alone (Streptococcus pneumoniae; D39 and EF3030, 1 hour, penicillin G up to 5,000 μg/ml, erythromycin up to 1,000 μg/ml): lacked any bactericidal activity
- Minimum antibiotic concentration for bactericidal (>3 log10) activity, planktonic (Streptococcus pneumoniae; S. pneumoniae D39): >5,000 μg/ml
- Minimum antibiotic concentration for bactericidal (>3 log10) activity, planktonic (Streptococcus pneumoniae; S. pneumoniae SP670): >5,000 μg/ml
- Short-time killing (Streptococcus pneumoniae; SP670, penicillin 30 μg/mL alone or with ALAFAC 50 μg/mL, 4 hours): no bactericidal activity

Molecule: gentamicin
- Dose concentration required to eradicate nasal lavage-associated bacteria ([1]; EF3030, gentamicin alone): 1,500 μg/ml
- Minimum antibiotic concentration for bactericidal (>3 log10) activity on murine nasopharyngeal colonization ([1]; EF3030): 100 μg/dose
- Gentamicin dose at which reduction of bacterial burden starts ([1]; EF3030, nasal lavage, gentamicin alone): 3 μg/mouse
- Gentamicin dose at which reduction of bacterial burden starts ([1]; EF3030, nasopharyngeal tissues, gentamicin alone): 10 μg/mouse
- Autolysis (OD600) (S. pneumoniae D39; [6]): failed to lyse
- MBC (Staphylococcus aureus [2]; S. aureus NRS1): >256 µg/mL
- MBC (Staphylococcus aureus [2]; S. aureus NRS384): 16 µg/mL
- Minimum antibiotic concentration for bactericidal (>3 log10) activity, planktonic (Staphylococcus aureus [3]; [7]): 50 μg/ml
- Short-time killing (Streptococcus pneumoniae; [8]): insignificant killing
- Minimum antibiotic concentration for bactericidal (>3 log10) activity, planktonic (Streptococcus pneumoniae; S. pneumoniae D39): >500 μg/ml
- Minimum antibiotic concentration for bactericidal (>3 log10) activity, planktonic (Streptococcus pneumoniae; S. pneumoniae EF3030): >500 μg/ml
- Short-time killing (Streptococcus pneumoniae; gentamicin alone at high concentrations, up to 1,000 μg/ml, 1 hour): 1.4 log10
- Short-time killing (Streptococcus pneumoniae; gentamicin alone at high concentrations, up to 1,000 μg/ml, 1 hour, listed as gentamicin): ≤ 1.4 log10

Molecule: COc1cccc(OC)c1C(=O)N[C@@H]1C(=O)N2[C@@H]1SC(C)(C)[C@@H]2C(=O)O [Methicillin, methicillin]
- Minimum antibiotic concentration for bactericidal (>3 log10) activity on murine nasopharyngeal colonization ([4]; NRS70, mice, within 12 hours, antibiotic alone): >100 μg/dose
- MRSA colonization, nasopharyngeal tissue ([4]; mice colonized with NRS 70 for 24 h, one dose, 100 μg methicillin alone or with 100 μg ALAFAC, 12 hours): failed to significantly reduce
- Colonization burden [4]: no effect
- MBC (Staphylococcus aureus [2]; Staphylococcus aureus, NRS1, S. aureus NRS1, read-out: MBC): > 256 µg/mL
- MBC (Staphylococcus aureus [2]; Staphylococcus aureus, NRS70, S. aureus NRS70, read-out: MBC): 128 µg/mL (≈ 336 µM)
- MBC (Staphylococcus aureus [2]; Staphylococcus aureus, NRS71, S. aureus NRS71, read-out: MBC): > 256 µg/mL
- MBC (Staphylococcus aureus [2]; Staphylococcus aureus, NRS100, S. aureus NRS100, read-out: MBC): > 256 µg/mL
- MBC (Staphylococcus aureus [2]; Staphylococcus aureus, NRS123, S. aureus NRS123, read-out: MBC): > 256 µg/mL
- MBC (Staphylococcus aureus [2]; Staphylococcus aureus, NRS384, S. aureus NRS384, read-out: MBC): > 256 µg/mL
- MBC (Staphylococcus aureus [2]; Staphylococcus aureus, S. aureus 11090306, read-out: MBC): 64 µg/mL (≈ 168 µM)
- MBC (Staphylococcus aureus [2]; Staphylococcus aureus, S. aureus 10307570, read-out: MBC): > 256 µg/mL
- Minimum antibiotic concentration for bactericidal (>3 log10) activity, planktonic (Staphylococcus aureus [3]; S. aureus 10307570): >128 μg/ml
- Minimum antibiotic concentration for bactericidal (>3 log10) activity, planktonic (Staphylococcus aureus [3]; S. aureus 11090306): 64 μg/ml
- Minimum antibiotic concentration for bactericidal (>3 log10) activity, planktonic (Staphylococcus aureus [3]; S. aureus NRS1): >128 μg/ml
- Minimum antibiotic concentration for bactericidal (>3 log10) activity, planktonic (Staphylococcus aureus [3]; S. aureus NRS70): 128 μg/ml
- Minimum antibiotic concentration for bactericidal (>3 log10) activity, planktonic (Staphylococcus aureus [3]; S. aureus NRS71): >128 μg/ml
- Minimum antibiotic concentration for bactericidal (>3 log10) activity, planktonic (Staphylococcus aureus [3]; S. aureus NRS100): >128 μg/ml
- Minimum antibiotic concentration for bactericidal (>3 log10) activity, planktonic (Staphylococcus aureus [3]; S. aureus NRS123): >128 μg/ml
- Minimum antibiotic concentration for bactericidal (>3 log10) activity, planktonic (Staphylococcus aureus [3]; [7]): >128 μg/ml

B1: ALAFAC: non-covalent complex of alpha-lactalbumin and fatty acid (oleic acid); labeled HAMLET or HL in drawings and tables (protein, UniProt P00709 20-142, looked up)
Alpha-lactalbumin: KQFTKCELSQLLKDIDGYGGIALPELICTMFHTSGYDTQAIVENNESTEYGLFQISNKLWCKSSQVPQSRNICDISCDKFLDDDITDDIMCAKKILDIKGIDYWLAHKALCTEKLEQWLCEKL
modifications: complexed with oleic acid
- Bacterial burden, nasopharyngeal tissue and nasal lavage ([1]; mice colonized with EF3030 for 48 hours, single intranasal dose, ALAFAC 50 μg, gentamicin, alone or combined, 6 hours): no decrease in bacterial burden
- Colonization level / bacterial burden [1, 5]: no effect; also recorded: no decrease in the pneumococcal burden
- Autolysis (OD600) (S. pneumoniae D39; ALAFAC alone at a lethal concentration (250 μg/ml)): rapid lysis
- Autolysis (OD600) (S. pneumoniae D39; [6]): small decrease in optical density
- Colonization burden [4]: no effect
- Short-time killing (Streptococcus pneumoniae; [8]): insignificant killing
- Short-time killing (Streptococcus pneumoniae; D39, 4 hours, ALAFAC 50 μg/ml, erythromycin 200 μg/ml, alone or combined, 7.2 log10 inoculum): insignificant bactericidal activity
- Fold higher concentration of ALAFAC alone required for activity similar to the combination (Streptococcus pneumoniae; D39, versus 50 μg/ml ALAFAC + 20 μg/ml penicillin G, 4 hours): > 5 fold
- Concentration required to eradicate each inoculum (Streptococcus pneumoniae; all pneumococcal strains, 1 hour): approximately 15 times the MIC
- Concentration to eradicate an inoculum of 10^8 pneumococci (Streptococcus pneumoniae; time-kill assay, 1 hour): 300 μg/ml
